Assay results published in patent US20240158446A1, “CYCLIC COMPOUND HAVING SELECTIVE INHIBITORY ACTION ON KRAS OVER HRAS AND NRAS” (CHUGAI SEIYAKU KABUSHIKI KAISHA, priority 2021, published 2024).

Assays:
[1] = target: GDP-bound KRAS wild-type protein (Homo sapiens, UniProt P01116); test: Binding to KRAS by surface plasmon resonance (SPR), Single Cycle Kinetics; conditions: SPR Single Cycle Kinetics, GDP-bound KRAS wild-type protein, 1:1 binding model; read-out: KRAS KD
[2] = target: GDP-bound NRAS wild-type protein (Homo sapiens, UniProt P01111); test: Binding to NRAS by surface plasmon resonance (SPR), Single Cycle Kinetics; conditions: SPR, GDP-bound NRAS wild-type protein vs GDP-bound KRAS wild-type protein
[3] = target: GDP-bound HRAS wild-type protein (Homo sapiens, UniProt P01112); test: Binding to HRAS by surface plasmon resonance (SPR), Single Cycle Kinetics; conditions: SPR, GDP-bound HRAS wild-type protein vs GDP-bound KRAS wild-type protein
Chain of GDP-bound HRAS wild-type protein (P01112 whole entry): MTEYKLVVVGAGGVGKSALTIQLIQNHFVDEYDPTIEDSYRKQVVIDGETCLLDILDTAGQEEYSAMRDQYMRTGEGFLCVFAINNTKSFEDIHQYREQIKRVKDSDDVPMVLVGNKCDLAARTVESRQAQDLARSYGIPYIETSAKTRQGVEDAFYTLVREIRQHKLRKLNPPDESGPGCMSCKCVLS

Chain of GDP-bound NRAS wild-type protein (P01111 whole entry): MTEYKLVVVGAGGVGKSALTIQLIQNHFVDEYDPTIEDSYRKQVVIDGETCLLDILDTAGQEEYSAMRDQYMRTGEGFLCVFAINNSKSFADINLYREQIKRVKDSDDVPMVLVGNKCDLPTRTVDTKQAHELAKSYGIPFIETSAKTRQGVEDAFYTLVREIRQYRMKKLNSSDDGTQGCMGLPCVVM
Chain of GDP-bound KRAS wild-type protein (P01116 whole entry): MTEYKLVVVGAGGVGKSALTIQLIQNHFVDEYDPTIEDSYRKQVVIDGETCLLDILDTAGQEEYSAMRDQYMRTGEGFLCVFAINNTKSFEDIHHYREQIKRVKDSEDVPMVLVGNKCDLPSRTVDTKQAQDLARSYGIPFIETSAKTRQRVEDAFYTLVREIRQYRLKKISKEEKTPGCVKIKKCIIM

Row | SMILES | Kd [1] [nM] | NRAS/KRAS (ratio of KD value with respect to NRAS to KD value with respect to KRAS) [2] | HRAS/KRAS (ratio of KD value with respect to HRAS to KD value with respect to KRAS) [3]
1 | C#CC[C@H]1C(=O)N[C@@H]([C@@H](C)CC)C(=O)N(C)CC(=O)N(C)[C@H]2CCCCCN(C2=O)[C@@H](Cc2ccc(C(F)(F)F)cc2)C(=O)N(C)CC(=O)N[C@@H](CCc2cc(F)c(C(F)(F)F)c(F)c2)C(=O)N2C[C@H](OCC)C[C@H]2C(=O)NC2(CCC2)C(=O)N(C)[C@@H](C2CCCC2)C(=O)N(C)[C@H](C(=O)N(C)C)CC(=O)N1C [PP0666] | 0.33 | B (a compound having 3 or more and less than 10 is denoted as B) | B (a compound having 3 or more and less than 10 is denoted as B)
2 | CCO[C@@H]1C[C@H]2C(=O)NC3(CCC3)C(=O)N(C)[C@@H](C3CCCC3)C(=O)N(C)[C@H](C(=O)N(C)C)CC(=O)N(C)[C@@H](CC3CC3)C(=O)N[C@@H]([C@@H](C)CC)C(=O)N(C)CC(=O)N(C)[C@H]3CCCCCN(C3=O)[C@@H](Cc3ccc(C(F)(F)F)cc3)C(=O)N(C)CC(=O)N[C@@H](CCc3cc(F)c(C(F)(F)F)c(F)c3)C(=O)N2C1 [PP0667] | 0.27 | B (a compound having 3 or more and less than 10 is denoted as B) | B (a compound having 3 or more and less than 10 is denoted as B)
3 | CCO[C@@H]1C[C@H]2C(=O)NC3(CCC3)C(=O)N(C)[C@@H](C3CCCC3)C(=O)N(C)[C@H](C(=O)N(C)C)CC(=O)N(C)[C@@H](CC3CCC3)C(=O)N[C@@H]([C@@H](C)CC)C(=O)N(C)CC(=O)N(C)[C@H]3CCCCCN(C3=O)[C@@H](Cc3ccc(C(F)(F)F)cc3)C(=O)N(C)CC(=O)N[C@@H](CCc3cc(F)c(C(F)(F)F)c(F)c3)C(=O)N2C1 [PP0668] | 0.38 | B (a compound having 3 or more and less than 10 is denoted as B) | B (a compound having 3 or more and less than 10 is denoted as B)
4 | CCO[C@@H]1C[C@H]2C(=O)NC3(CCC3)C(=O)N(C)[C@@H](C3CCCC3)C(=O)N(C)[C@H](C(=O)N(C)C)CC(=O)N(C)[C@@H](Cc3cccnc3)C(=O)N[C@@H]([C@@H](C)CC)C(=O)N(C)CC(=O)N(C)[C@H]3CCCCCN(C3=O)[C@@H](Cc3ccc(C(F)(F)F)cc3)C(=O)N(C)CC(=O)N[C@@H](CCc3cc(F)c(C(F)(F)F)c(F)c3)C(=O)N2C1 [PP0673] | 0.12 | B (a compound having 3 or more and less than 10 is denoted as B) | B (a compound having 3 or more and less than 10 is denoted as B)
5 | CCO[C@@H]1C[C@H]2C(=O)NC3(CCC3)C(=O)N(C)[C@@H](C3CCCC3)C(=O)N(C)[C@H](C(=O)N(C)C)CC(=O)N(C)[C@@H](COC)C(=O)N[C@@H]([C@@H](C)CC)C(=O)N(C)CC(=O)N(C)[C@H]3CCCCCN(C3=O)[C@@H](Cc3ccc(C(F)(F)F)cc3)C(=O)N(C)CC(=O)N[C@@H](CCc3cc(F)c(C(F)(F)F)c(F)c3)C(=O)N2C1 [PP0674] | 0.16 | B (a compound having 3 or more and less than 10 is denoted as B) | B (a compound having 3 or more and less than 10 is denoted as B)
6 | CCO[C@@H]1C[C@H]2C(=O)NC3(CCC3)C(=O)N(C)[C@@H](C3CCCC3)C(=O)N(C)[C@H](C(=O)N3CCOCC3)CC(=O)N(C)[C@@H](CC)C(=O)N[C@@H]([C@@H](C)CC)C(=O)N(C)CC(=O)N(C)[C@H]3CCCCCN(C3=O)[C@@H](Cc3ccc(C(F)(F)F)cc3)C(=O)N(C)CC(=O)N[C@@H](CCc3cc(F)c(C(F)(F)F)c(F)c3)C(=O)N2C1 [PP0678] | 0.47 | B (a compound having 3 or more and less than 10 is denoted as B) | B (a compound having 3 or more and less than 10 is denoted as B)
7 | CCC[C@H]1C(=O)N[C@@H]([C@@H](C)CC)C(=O)N(C)CC(=O)N(C)[C@H]2CCCCCN(C2=O)[C@@H](Cc2ccc(C(F)(F)F)cc2)C(=O)N(C)CC(=O)N[C@@H](CCc2cc(F)c(C(F)(F)F)c(F)c2)C(=O)N2C[C@H](OCC)C[C@H]2C(=O)NC2(CCC2)C(=O)N(C)[C@@H](C2CCCC2)C(=O)N(C)[C@H](C(=O)N2CCOCC2)CC(=O)N1C [PP0679] | 0.58 | B (a compound having 3 or more and less than 10 is denoted as B) | B (a compound having 3 or more and less than 10 is denoted as B)
8 | C#CC[C@H]1C(=O)N[C@@H]([C@@H](C)CC)C(=O)N(C)CC(=O)N(C)[C@H]2CCCCCN(C2=O)[C@@H](Cc2ccc(C(F)(F)F)cc2)C(=O)N(C)CC(=O)N[C@@H](CCc2cc(F)c(C(F)(F)F)c(F)c2)C(=O)N2C[C@H](OCC)C[C@H]2C(=O)NC2(CCC2)C(=O)N(C)[C@@H](C2CCCC2)C(=O)N(C)[C@H](C(=O)N2CCOCC2)CC(=O)N1C [PP0681] | 0.44 | B (a compound having 3 or more and less than 10 is denoted as B) | B (a compound having 3 or more and less than 10 is denoted as B)
9 | CCO[C@@H]1C[C@H]2C(=O)NC3(CCC3)C(=O)N(C)[C@@H](C3CCCC3)C(=O)N(C)[C@H](C(=O)N3CCOCC3)CC(=O)N(C)[C@@H](COC)C(=O)N[C@@H]([C@@H](C)CC)C(=O)N(C)CC(=O)N(C)[C@H]3CCCCCN(C3=O)[C@@H](Cc3ccc(C(F)(F)F)cc3)C(=O)N(C)CC(=O)N[C@@H](CCc3cc(F)c(C(F)(F)F)c(F)c3)C(=O)N2C1 [PP0689] | 0.3 | B (a compound having 3 or more and less than 10 is denoted as B) | B (a compound having 3 or more and less than 10 is denoted as B)
10 | CCO[C@@H]1C[C@H]2C(=O)NC3(CCC3)C(=O)N(C)[C@@H](C3CCCC3)C(=O)N(C)[C@H](C(=O)N3CCOCC3)CC(=O)N(C)[C@@H](CCOC)C(=O)N[C@@H]([C@@H](C)CC)C(=O)N(C)CC(=O)N(C)[C@H]3CCCCCN(C3=O)[C@@H](Cc3ccc(C(F)(F)F)cc3)C(=O)N(C)CC(=O)N[C@@H](CCc3cc(F)c(C(F)(F)F)c(F)c3)C(=O)N2C1 [PP0690] | 0.46 | B (a compound having 3 or more and less than 10 is denoted as B) | B (a compound having 3 or more and less than 10 is denoted as B)
11 | CCO[C@@H]1C[C@H]2C(=O)NC3(CCC3)C(=O)N(C)[C@@H](C3CCCC3)C(=O)N(C)[C@H](C(=O)N(C)C)CC(=O)N(C)[C@@H](CC)C(=O)N[C@@H]([C@@H](C)CC)C(=O)N(C)CC(=O)N(C)[C@H]3CCCCN(C3=O)[C@@H](Cc3ccc(C(F)(F)F)cc3)C(=O)N(C)CC(=O)N[C@@H](CCc3cc(F)c(C(F)(F)F)c(F)c3)C(=O)N2C1 [PP0693] | 0.016 | C (A compound having a KD ratio of 0.1 or more and less than 3 is denoted as C) | C (A compound having a KD ratio of 0.1 or more and less than 3 is denoted as C)
12 | CCC[C@H]1C(=O)N[C@@H]([C@@H](C)CC)C(=O)N(C)CC(=O)N(C)[C@H]2CCCCN(C2=O)[C@@H](Cc2ccc(C(F)(F)F)cc2)C(=O)N(C)CC(=O)N[C@@H](CCc2cc(F)c(C(F)(F)F)c(F)c2)C(=O)N2C[C@H](OCC)C[C@H]2C(=O)NC2(CCC2)C(=O)N(C)[C@@H](C2CCCC2)C(=O)N(C)[C@H](C(=O)N(C)C)CC(=O)N1C [PP0694] | 0.025 | C (A compound having a KD ratio of 0.1 or more and less than 3 is denoted as C) | C (A compound having a KD ratio of 0.1 or more and less than 3 is denoted as C)
13 | C=CC[C@H]1C(=O)N[C@@H]([C@@H](C)CC)C(=O)N(C)CC(=O)N(C)[C@H]2CCCCN(C2=O)[C@@H](Cc2ccc(C(F)(F)F)cc2)C(=O)N(C)CC(=O)N[C@@H](CCc2cc(F)c(C(F)(F)F)c(F)c2)C(=O)N2C[C@H](OCC)C[C@H]2C(=O)NC2(CCC2)C(=O)N(C)[C@@H](C2CCCC2)C(=O)N(C)[C@H](C(=O)N(C)C)CC(=O)N1C [PP0695] | 0.015 | C (A compound having a KD ratio of 0.1 or more and less than 3 is denoted as C) | C (A compound having a KD ratio of 0.1 or more and less than 3 is denoted as C)
14 | C#CC[C@H]1C(=O)N[C@@H]([C@@H](C)CC)C(=O)N(C)CC(=O)N(C)[C@H]2CCCCN(C2=O)[C@@H](Cc2ccc(C(F)(F)F)cc2)C(=O)N(C)CC(=O)N[C@@H](CCc2cc(F)c(C(F)(F)F)c(F)c2)C(=O)N2C[C@H](OCC)C[C@H]2C(=O)NC2(CCC2)C(=O)N(C)[C@@H](C2CCCC2)C(=O)N(C)[C@H](C(=O)N(C)C)CC(=O)N1C [PP0696] | 0.012 | B (a compound having 3 or more and less than 10 is denoted as B) | B (a compound having 3 or more and less than 10 is denoted as B)
